Experimental findings from PubChem BioAssay AID504505 (The Scripps Research Institute Molecular Screening Center, 2011) are described below.

Structures are written as SMILES.

The test deals with Abhydrolase domain-containing protein 11 (ABHD11), mouse. Put plainly: ABHD11 inhibition in mouse cells, late-stage follow-up, selectivity assay for LYPLA1 inhibitor project, cell-based, gel-based fluorescent ABPP (AID 504505). To be noted: ABHD11 labeling, at 0.03 µM, hits give high values.

For orientation: inhibition means the share of the control response that was lost under treatment. For the compound `CCC1CCCCN1C(=O)n1ncc(C(O)(c2ccccc2)c2ccccc2)n1` (stereo unspecified), the inhibition is 100%.
